# What was measured:
# [1] = Metabolic stability using human liver microsomes (HLM); type: in vitro ADME
# Experimental: 1 mM stock solution of test compound was prepared in DMSO and diluted with Acetonitrile:Water (1:1) to get a 100 μM working concentration. 100 mL of Milli Q water was added to K2HPO4 (1.398 g) and KH2PO4 (0.27 g) to get final pH 7.4 solution of potassium phosphate buffer. […] The above mixture was pre incubated for 15 minutes at 37° C. After pre incubation, 32.5 μL of the mixture was added to 17.5 μL of buffer, this was incubated for 60 minutes at 37° C. [60 min Without Cofactor (NADPH)]. 16.25 μL of the pre incubated mixture and 8.75 μL of cofactor was added to 150 μL of acetonitrile containing internal standard [0 min Sample]. 62 μL of cofactor was added to remaining pre incubation mixture [Incubation mixture]. 25 μL of incubation mixture at 0, 5, 15, 30, 60 min and 60 min without cofactor were precipitated with 150 μL of acetonitrile containing internal standard, vortexed and centrifuged at 4000 rpm at 4° C. for 20 minutes. 120 μL of supernatant was diluted with 120 μL of water and analyzed by LC-MS/MS [sample preparation].
# Kinetic solubility = type: physicochemical; conditions: pH 7.4 phosphate buffer (PBS), aqueous buffer, kinetic from dmso stock, room temperature, 1.0% DMSO
# Experimental: PBS sachet was dissolved in 0.9 L of Milli Q water and pH was adjusted to 7.4. Final volume was made up to 1 L with the water and stored at ambient temperature 21-25° C. […] 4 μL from the 50 mM stock solution were added to deep well plate containing 396 μL of pH 7.4 phosphate buffer, mixed and incubated for 24 hours at room temperature with constant mixing at 300 rpm. The plate was sealed well during the incubation process. After incubation, the samples were centrifuged for 20 min at 4000 rpm. The supernatant was analysed by HPLC-UV. The DMSO content in the sample was 1.0%. The final concentration of the compound in deep well plate was 500 μM.
# Plasma stability assay = type: in vitro ADME; conditions: 1 μM, 37° C.
# Experimental: 1 mM Stock of test compound was prepared from 10 mM initial stock solution of compounds by diluting 10 μL of 10 mM stock with 90 μL of DMSO. Then 10 μL of 1 mM stock was diluted with 90 μL of DMSO to give 100 μM concentration. The frozen plasma was thawed at room temperature and centrifuged at 1400 rpm at 4° C., for 15 minutes. Approximately 90% of the clear supernatant fraction was transferred to a separate tube and was used for the assay. Final working stock of 1 μM was prepared by diluting 3 μL of 100 μM with 297 μL of plasma. Plasma containing the test compound was incubated for 120 min at 37° C. in shaker with 500 rpm. 50 μL of aliquot of sample at 0, 15, 30, 60 and 120 minutes were precipitated with 150 μL of acetonitrile containing internal standard and centrifuged at 4000 rpm at 4° C. for 20 minutes. 120 μL of supernatant was diluted with 120 μL of water and analysed by LC-MS/MS.
# [2] = test system: ubiquitination of ATGL by COP1; assay: Immunoprecipitation assay of ATGL ubiquitination status in HepG2 cells; type: cell-based; conditions: HepG2 cells overexpressing myc-ATGL, HA-Ubiquitin, 5 μM, MG-132, compared with control
# Experimental: To this end, an immunoprecipitation assay was performed wherein HepG2 cells overexpressing myc-ATGL were transfected with HA-Ubiquitin and treated with 5 μM of the compounds 5, 62, and 94.MG-132, a proteasomal inhibitor, was added4 hours before harvesting the cells. Immune complexes were pulled down with anti-myc antibody and immunoblot was done using anti-HA antibody. The resultant smears on the blot reflect the ubiquitination status of ATGL.
# COP1 = target: T1, COP1 (Homo sapiens, UniProt Q8NHY2); assay: Western blot of COP1 level in HepG2 cells after compound treatment; type: cell-based; conditions: 5 μM, 24 hours
# T1 construct: endogenous in cells; host or cells: HepG2
# Experimental: HepG2 cells were treated with the compounds 5, 8, 11, 59, 62, 65, 91, 94 at 5 μM for 24 hours. After removing media from the cells, the wells were washed with 1×PBS twice to remove any remnant media. Cells were then lysed in lysis buffer containing 50 mM Tris-HCl (pH 7.4), 100 mM NaCl, 1 mM EDTA, 1 mM EGTA, 1% Triton X-100 and protease inhibitor cocktail 1 (Millipore, Billierica, MA, USA). Following centrifugation at 20,000 g for 20 minutes, the protein solution was extracted from the cells. Protein was estimated using Bradford assay. Bradford's reagent (BioRad) was diluted in 1:4 ratio in double distilled water. 2 μl of protein sample was added to 100 μl of the reagent and absorbance was measured at 595 nm. 30 μg of protein was diluted in lysis buffer. 1X loading buffer diluted from 5X stock containing 250 mM Tris-HCl (pH 6.8), 10% SDS, 50% glycerol, 0.1% bromophenol Blue and 10% β-mercaptoethanol was added. The protein samples were then heated at 95° C. for 10 minutes, cooled and centrifuged at 12,000 g for 2 minutes prior to loading.
# For western blotting, the proteins were resolved in 10% SDS PAGE (discontinuous buffer system). 1X running buffer containing SDS, Tris Base and Glycine was used to run the gel at 80V for approximately 2 hours. Transfer was done using PVDF membrane (Millipore) having pore size of 0.45 μm. 1X transfer buffer containing Tris-Base, Glycine and 20% methanol was used for wet transfer. Transfer was done at 90V for 3 hours. Following transfer, the PVDF membrane containing the proteins were washed in 1×PBST comprising of 1×PBS and 1% Tween 20 (Sigma Aldrich). The membrane was then incubated for 1 hour at room temperature in 5% skim milk powder to block the non-specific sites. Following multiple washes with 1×PBST to wash away any remaining blocking buffer, the required primary antibody (COP1 [BethylLaboraties], ATGL [Cell Signalling Technology] or Actin[Cell Signalling Technology]) prepared with 1×PBST, 1% Bovine Serum Albumin and 0.04% Sodium Azide was added to the membrane and incubated overnight at 4° C. The next day, the membrane was again washed multiple times with 1×PBST to remove any unbound primary antibody. The membrane was then incubated with goat anti-rabbit secondary antibody (Genei) for 1 hour at room temperature and washed again for multiple times with 1×PBST. The membrane was then developed using Clarity™ ECL Western Blotting Substrate (BioRad) and viewed in ChemiDoc (BioRad).
# T1 sequence (Q8NHY2 whole entry): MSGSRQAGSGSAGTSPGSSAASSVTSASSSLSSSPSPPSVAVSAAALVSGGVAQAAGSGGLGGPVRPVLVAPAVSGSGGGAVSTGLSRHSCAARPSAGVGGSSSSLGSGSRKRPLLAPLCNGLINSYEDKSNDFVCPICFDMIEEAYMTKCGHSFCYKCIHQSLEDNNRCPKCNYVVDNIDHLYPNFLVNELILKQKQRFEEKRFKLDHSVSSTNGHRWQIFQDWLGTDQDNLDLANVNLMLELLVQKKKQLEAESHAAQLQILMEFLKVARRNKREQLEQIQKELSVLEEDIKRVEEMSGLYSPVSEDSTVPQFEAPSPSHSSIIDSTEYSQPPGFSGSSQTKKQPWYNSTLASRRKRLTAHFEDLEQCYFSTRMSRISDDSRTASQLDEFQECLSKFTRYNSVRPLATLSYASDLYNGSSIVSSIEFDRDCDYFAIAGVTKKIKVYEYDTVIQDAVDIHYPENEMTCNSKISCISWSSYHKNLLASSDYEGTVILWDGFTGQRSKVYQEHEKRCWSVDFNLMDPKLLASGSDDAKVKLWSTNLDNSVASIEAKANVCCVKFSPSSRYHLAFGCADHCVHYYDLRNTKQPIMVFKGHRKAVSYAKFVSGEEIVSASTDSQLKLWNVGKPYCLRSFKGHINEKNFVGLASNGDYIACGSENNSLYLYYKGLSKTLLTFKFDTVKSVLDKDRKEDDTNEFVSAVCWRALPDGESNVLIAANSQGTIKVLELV
SMILES,% QH (Well stirred model) [1] [%],solubility kinetic at 24 hours (Kinetic solubility) [µg/mL],Mean % remaining at 2 hrs in human Plasma (Plasma stability assay) [%],ubiquitination status of ATGL (poly-Ubiquitin smear) [2],stabilization of COP1 (Western Blot) (COP1)
"COCCn1c(=O)[nH]c2ccc(NC(=O)Nc3cccc(C(C)=O)c3)cc2c1=O [Compound 5, 1-(3-acetylphenyl)-3-(3-(2-methoxyethyl)-2,4-dioxo-1,2,3,4-tetrahydroquinazolin-6-yl)urea]",7.60,0.8,97.40,stark reduction in the ubiquitination smear,stabilize the COP1
"COCCn1c(=O)c2cc(NC(=O)Nc3cccc(C(C)=O)c3)ccc2n(CCN2CCCCC2)c1=O [Compound 62, 1-(3-acetylphenyl)-3-(3-(2-methoxyethyl)-2,4-dioxo-1-(2-(piperidin-1-yl)ethyl)-1,2,3,4-tetrahydroquinazolin-6-yl)urea]",56.74,116,26.18,stark reduction in the ubiquitination smear,stabilize the COP1
"COCCn1c(=O)c2cc(NC(=O)Nc3cccc(C(C)=O)c3)ccc2n(CCCN2CCOCC2)c1=O [Compound 94, 1-(3-acetylphenyl)-3-(3-(2-methoxyethyl)-1-(3-morpholinopropyl)-2,4-dioxo-1,2,3,4-tetrahydroquinazolin-6-yl)urea]",59.60,89.9,51.74,no such effect,stabilize the COP1

# From patent publication US20250154112A1, “A PREPARATION OF QUINAZOLINEDIONES AND USE THEREOF” (COUNCIL OF SCIENTIFIC AND INDUSTRIAL RESEARCH AN INDIAN …, priority 2021, published 2025)
